Source: PMC12794274, “Therapeutic potential of Sheng-Xian-Tang in doxorubicin-induced chronic heart failure by regulation of phenylalanine metabolism disruption” (Chinese Medicine, 2026)

Columns and labels:
AML12 cells = assay: AML12 cell viability (CCK8); type: cell-based
Procedure: (§1) Mouse hepatocellular cell lines (AML12), purchased from the Shanghai Cell Bank of Chinese Academy of Sciences (Shanghai, China), were cultured in Dulbecco’s Modified Eagle Medium (DMEM) supplemented with 10% fetal bovine serum (FBS) and 2 mM L-glutamine and 1% pyruvate and maintained at 37 °C in a […], 5% CO2 incubator. Cells were seeded at a density of 5 × 10^5 cells/well in 6-well plates. […] Cells’ survival rate was detected by Cell Counting Kit-8 (CCK8) Reagents (Thermo Scientific, Singapore).

[1] = system: PAH activity in AML12 cells; type: cell-based; settings: BH4 10 μM; timosaponin B-II, neomangiferin, anemarrhenasaponin I 5, 10, 20 μM; timosaponin AIII 0.1, 0.2, 0.5 μM
Procedure: Serum biochemical parameters including brain natriuretic peptide (BNP), creatine kinase (CK), lactate dehydrogenase (LDH), alanine aminotransferase (ALT), and aspartate aminotransferase (AST) were measured using commercial ELISA kits (Nanjing Jiancheng Bioengineering Institute, Nanjing, China) according to the manufacturer’s instructions. Superoxide dismutase (SOD), and malondialdehyde (MDA) levels in liver and heart tissues were measured using assay kits from Aifang Biotechnology (Changsha, China). Phenylalanine and tyrosine concentrations in the cell were determined using an ELISA kit from Abmart (Shanghai, China).
as §1

[2] = biological target: Phenylalanine hydroxylase (PAH) protein (Homo sapiens, UniProt P00439); assay: Surface Plasmon Resonance (SPR) analysis, Biacore T200; type: binding; settings: PAH immobilized on CM5 chip, read-out: dissociation constant (Kd)
Sequence of Phenylalanine hydroxylase (PAH) protein (P00439 whole entry): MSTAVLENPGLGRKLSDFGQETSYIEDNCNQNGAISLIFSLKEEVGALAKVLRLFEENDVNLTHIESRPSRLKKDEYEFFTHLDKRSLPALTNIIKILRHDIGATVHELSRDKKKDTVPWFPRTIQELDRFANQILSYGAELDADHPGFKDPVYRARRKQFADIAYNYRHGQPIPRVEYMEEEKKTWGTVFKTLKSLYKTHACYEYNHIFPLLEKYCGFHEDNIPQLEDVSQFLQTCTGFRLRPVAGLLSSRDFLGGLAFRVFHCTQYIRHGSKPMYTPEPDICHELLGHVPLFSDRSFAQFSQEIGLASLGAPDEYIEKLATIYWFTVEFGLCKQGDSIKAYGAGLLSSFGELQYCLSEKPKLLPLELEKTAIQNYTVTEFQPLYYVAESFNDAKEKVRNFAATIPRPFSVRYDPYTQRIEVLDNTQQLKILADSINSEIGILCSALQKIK
Procedure: SPR assays were conducted using a Biacore T200 system (GE Healthcare Life Sciences, USA). Phenylalanine hydroxylase (PAH) protein was immobilized on CM5 sensor chips using an amine-coupling kit (BR100050, GE Healthcare) following standard procedures. […] Samples were injected over reference and PAH-immobilized flow cells at a flow rate of 30 μL/min, with 120 s contact time and 120 s dissociation time. Kinetic parameters were calculated using Biacore T200 evaluation software.

Row | SMILES | non-cytoxic concentration (AML12 cells; AML12 cells) [µM] | other results
1 | C[C@@H]1C[C@H]2O[C@@]3(O[C@@H]2C(C)(C)O)[C@H](O)[C@@]2(C)[C@@H]4CC[C@H]5C(C)(C)[C@@H](O[C@@H]6OC[C@@H](O)[C@H](O)[C@H]6O)CC[C@@]56C[C@@]46CC[C@]2(C)[C@@H]13 [Cimigenol xyloside] | 5 to 20 | –
2 | COc1ccc(-c2coc3cc(O)ccc3c2=O)cc1 [Formononetin] | 5 to 20 | –
3 | COc1ccc(-c2coc3cc(O)ccc3c2=O)cc1O [Calycosin] | 5 to 20 | –
4 | COc1ccc(-c2coc3cc(O[C@@H]4O[C@H](CO)[C@@H](O)[C@H](O)[C@H]4O)ccc3c2=O)cc1 [Ononin] | 5 to 20 | –
5 | CC(C)(O)[C@@H]1CC[C@](C)([C@H]2[C@@H](O)C[C@@]3(C)[C@@H]4C[C@H](O[C@@H]5O[C@H](CO)[C@@H](O)[C@H](O)[C@H]5O)[C@H]5C(C)(C)[C@@H](O[C@@H]6OC[C@@H](O)[C@H](O)[C@H]6O)CC[C@@]56C[C@@]46CC[C@]23C)O1 [Astragaloside IV] | 5 to 20 | –
6 | C[C@H]1CC[C@@]2(OC1)O[C@H]1C[C@H]3[C@@H]4CC[C@@H]5C[C@@H](O[C@@H]6O[C@H](CO)[C@H](O)[C@H](O)[C@H]6O[C@@H]6O[C@H](CO)[C@@H](O)[C@H](O)[C@H]6O)[C@@H](O)C[C@]5(C)[C@H]4CC[C@]3(C)[C@H]1[C@@H]2C [Timosaponin A-II] | 0.1 to 0.5 | –
7 | COc1ccc(/C=C/C(=O)O)cc1O [Isoferulic acid] | 5 to 20 | –
8 | C[C@@H](CC[C@@]1(O)O[C@H]2C[C@H]3[C@@H]4CC[C@@H]5C[C@@H](O[C@@H]6O[C@H](CO)[C@H](O)[C@H](O)[C@H]6O[C@@H]6O[C@H](CO)[C@@H](O)[C@H](O)[C@H]6O)CC[C@]5(C)[C@H]4CC[C@]3(C)[C@H]2[C@@H]1C)CO[C@@H]1O[C@H](CO)[C@@H](O)[C@H](O)[C@H]1O [Timosaponin B-II] | – | non-cytoxic concentration (AML12 cells; mouse): 5 to 20 µM; phenylalanine levels in AML12 cells increased by DOX [1]: significantly reduce; Kd [2]: < 10 µM
